In US9290791B2, “Reagents and methods for sirtuin capture” (CORNELL UNIVERSITY, priority 2010, dated 2016):

Experiments:
[1] = tested on: class III HDACs (sirtuins); experiment: Sirtuin inhibitor screening pulldown assay on sirtuin mixture; format: biochemical; conditions: 20 μM inhibitor; mixture of SirT1, SirT2, SirT3, SirT5, SirT6; FIG. 10
Method: (§1) The key criterion for our pulldown technology is the formation of a stalled thioimidate complex with a cross-linkable moiety at the active site on sirtuins. If the presence of a sirtuin inhibitor can interrupt thioimidate formation, there will be less or no sirtuin can be harvested later on.
(§2) Pulldown assay: a typical reaction was performed in 100 mM phosphate buffer pH 7.5 in a total volume of 100 μL. Each reaction contained 500 μM of NAD^+, 200 μM of 4-azido-BzlK(AcS)AAOMe, and various concentrations of potential inhibitors. One control experiment which contained 500 μM of NAD^+ only were run at the same time. Reactions were initiated by addition of enzymes with final concentrations: 5 μM for SirT1, 3.4 μM for SirT2, 4.9 μM for SirT3, 5.04 μM for SirT5 and 5.35 μM for SirT6. Reactions were incubated at 37° C. for 30 min and then alkynyl-biotin was added to each sample to a final concentration of 500 μM followed by 3 μL of freshly premixed click chemistry cocktail: CuSO4 (final concentration 1 mM), tris[(1-benzyl-1H-1,2,3-triazol-4-yl)methyl]amine (TBTA, final concentration 600 μM) and tris(2-carboxyethyl)phosphine hydrochloride (TCEP, final concentration 2 mM). The samples were incubated at room temperature for 30 min. Then, 50 μL streptavidin beads (pretreated with 1 mM of BSA) were added to each sample and the incubation were continued at room temperature for 1 h. […]

SirT1 [2] = molecular target: T1, SirT1 (Homo sapiens, UniProt Q96EB6); experiment: Sirtuin inhibitor screening pulldown assay (NAD+, azido-thiotripeptide, alkynyl-biotin; SDS-PAGE, silver stain); format: biochemical; conditions: 500 μM inhibitor; sirtuin mixture, 5 μM SirT1, 500 μM NAD+, 200 μM 4-azido-BzlK(AcS)AAOMe; FIG. 10
T1 sequence (Q96EB6 whole entry, species assumed): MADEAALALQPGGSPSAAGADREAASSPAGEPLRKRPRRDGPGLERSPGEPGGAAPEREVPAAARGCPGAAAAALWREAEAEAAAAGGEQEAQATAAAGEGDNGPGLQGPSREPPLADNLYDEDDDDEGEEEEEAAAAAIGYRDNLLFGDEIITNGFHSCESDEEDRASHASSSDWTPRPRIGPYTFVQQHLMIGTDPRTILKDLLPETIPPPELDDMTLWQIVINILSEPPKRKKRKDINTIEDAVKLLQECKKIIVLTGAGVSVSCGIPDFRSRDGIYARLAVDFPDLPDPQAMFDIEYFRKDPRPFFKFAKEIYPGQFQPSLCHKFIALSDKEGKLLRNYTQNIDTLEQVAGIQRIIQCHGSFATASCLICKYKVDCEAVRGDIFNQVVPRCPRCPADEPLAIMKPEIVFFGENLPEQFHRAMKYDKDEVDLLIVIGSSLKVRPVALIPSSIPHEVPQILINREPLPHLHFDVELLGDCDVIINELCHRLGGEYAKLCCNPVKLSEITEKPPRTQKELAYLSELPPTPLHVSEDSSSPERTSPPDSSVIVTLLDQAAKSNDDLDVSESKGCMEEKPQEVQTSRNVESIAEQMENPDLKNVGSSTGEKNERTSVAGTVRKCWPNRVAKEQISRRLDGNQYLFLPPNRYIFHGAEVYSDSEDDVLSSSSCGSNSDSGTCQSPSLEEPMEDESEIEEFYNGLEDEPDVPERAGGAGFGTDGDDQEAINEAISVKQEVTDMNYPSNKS
Method: as §1, §2

SirT5 = molecular target: T2, SirT5 (Homo sapiens, UniProt Q9NXA8); experiment: as above; format: biochemical; conditions: 500 μM inhibitor; sirtuin mixture, 5.04 μM SirT5, 500 μM NAD+, 200 μM 4-azido-BzlK(AcS)AAOMe; FIG. 10
T2 construct: SirT5(34-302); poly histidine tag (N); made in house; host or cells: E. coli BL21-CodonPlus(DE3)-RIPL
T2 sequence (Q9NXA8 34-302): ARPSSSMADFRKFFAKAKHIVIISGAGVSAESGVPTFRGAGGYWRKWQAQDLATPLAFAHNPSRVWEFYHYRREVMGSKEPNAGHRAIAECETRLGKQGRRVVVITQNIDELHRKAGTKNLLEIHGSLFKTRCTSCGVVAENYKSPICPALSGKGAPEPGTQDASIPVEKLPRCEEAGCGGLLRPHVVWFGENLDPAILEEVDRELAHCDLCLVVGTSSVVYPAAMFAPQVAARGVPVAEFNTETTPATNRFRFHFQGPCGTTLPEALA
Method: as §1, §2

SirT3 = molecular target: T3, SirT3 (Homo sapiens, UniProt Q9NTG7); experiment: as above; format: biochemical; conditions: 500 μM inhibitor; sirtuin mixture, 4.9 μM SirT3, 500 μM NAD+, 200 μM 4-azido-BzlK(AcS)AAOMe; FIG. 10
T3 construct: poly histidine tag (N); made in house; host or cells: E. coli BL21-CodonPlus(DE3)-RIPL
T3 sequence (Q9NTG7 1-399): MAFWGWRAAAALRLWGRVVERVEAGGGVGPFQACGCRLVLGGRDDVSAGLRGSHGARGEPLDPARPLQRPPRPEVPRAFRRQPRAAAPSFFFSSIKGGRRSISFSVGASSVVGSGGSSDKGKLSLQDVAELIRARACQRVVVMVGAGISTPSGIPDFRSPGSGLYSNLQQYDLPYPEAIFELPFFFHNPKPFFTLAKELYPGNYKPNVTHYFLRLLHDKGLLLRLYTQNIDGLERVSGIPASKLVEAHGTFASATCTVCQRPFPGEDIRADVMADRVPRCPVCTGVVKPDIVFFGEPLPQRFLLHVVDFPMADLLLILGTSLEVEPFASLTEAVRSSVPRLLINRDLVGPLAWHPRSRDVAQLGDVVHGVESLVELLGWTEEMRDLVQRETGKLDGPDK
Method: as §1, §2

SirT1 [3] = molecular target: T1, SirT1; experiment: HPLC deacetylation assay of SirT1 with p53mer; format: biochemical; conditions: 3 μM SirT1, 500 μM NAD+, 300 μM p53mer, various concentrations of suramin; FIG. 11
Method: HPLC assay: reactions were performed in 100 mM phosphate buffer pH 7.5 in a total volume of 50 μL. Each reaction contained 500 μM of NAD^+, 300 μM of p53mer and various concentrations of suramin. Reactions were initiated by addition of SirT1 to a final concentration of 3 μM. A negative control which contained 500 μM of NAD^+ and 300 μM of p53mer, but was quenched by addition of TFA before the addition of enzyme was run at the same time. The reactions were incubated at 37° C. for 20 min before being quenched by 8 of 10% TFA. The samples were then injected on an HPLC fitted to a Macherey-Nagel Nucleosil C18 column. AADPR, NAD^+ and NAM peaks were resolved using a gradient of 0 to 10% methanol in 20 mM ammonium acetate. Chromatograms were analyzed at 260 nm.

sirtuin = conditions: known sirtuin inhibitor; cited from earlier work

Row | SirT1 captured by standard pulldown assay (SirT1 [2]) | SirT5 captured by standard pulldown assay (SirT5) | SirT3 captured by standard pulldown assay (SirT3) | inhibition confirmed by HPLC assay (SirT1 [3]) | Compound | effect on sirtuin capture in pulldown assay [1] | IC50 (sirtuin)
1 |  |  |  |  | CC(/C=C/C(=O)NO)=C\[C@@H](C)C(=O)c1ccc(N(C)C)cc1 [TSA, trichostatin A] | no effects | 
2 | less | less | less | confirmed | Cc1ccc(C(=O)Nc2ccc(S(=O)(=O)O)c3cc(S(=O)(=O)O)cc(S(=O)(=O)O)c23)cc1NC(=O)c1cccc(NC(=O)Nc2cccc(C(=O)Nc3cc(C(=O)Nc4ccc(S(=O)(=O)O)c5cc(S(=O)(=O)O)cc(S(=O)(=O)O)c45)ccc3C)c2)c1 [Suramin, suramin] |  | low micromolar range
